Experimental data reported in patent publication US10201532B2, “Compounds and their use” (ALLECRA THERAPEUTICS GMBH, priority 2010, dated 2019).

Legend:
[1] = tested on: K. pneumoniae ATCC BAA-1705 (KPC2); test: Disk zone of inhibition, antibiotic + Compound-1 on same disk (Methodology 2); assay type: cell-based, Klebsiella pneumoniae
From the text: (§1) In this experiment, Compound-1 is used as a diagnostic reagent for the detection of β-lactamases belonging to the families KPC & ESBL (e.g., SHV18) producing Enterobacteriaceae. A simple set of absorbent paper disks impregnated with antibiotic on agar medium is used for the detection.
(§2) • 0.5 McFarland of the test organism was inoculated at 1:10 dilution on Muller • Hinton Agar plates • Test organisms: Klebsiella pneumoniae (K.p) ATCC BAA-1705, Klebsiella pneumoniae ATCC 700603, Escherichia coli (E.c) Ecoli233 • Carbapenem (e.g., Imipenem [IPM] 10 μg) and cephalosporin (e.g., Ceftazidime [CAZ] 30 μg) paper disks (7 mm) were placed on the inoculated agar plates • Compound-1 (60 μg) disk was placed at a distance of 7 & 10 mm from the carbapenem and cephalosporin disks. • The presence of expressed carbapenemases or ESBLs was measured as the expansion of Imipenem or Ceftazidime's inhibition zones due to synergy in the presence of Compound-1.
(§3) The methodology remains the same as Methodology 1 except the following change • Compound-1 (60 μg) was added on the same disk in combination with a carbapenem (e.g., Imipenem 10 μg) or cephalosporin (e.g., Ceftazidime 30 μg) and placed on the inoculated agar plate. • The presence of the expressed carbapenemases or ESBLs was measured as an increase in Imipenem or Ceftazidime's zone diameter in combination with Compound-1 compared to antibiotic alone. Results

[2] = tested on: E. coli ATCC 25922 (β-lac-ve); test: as above; assay type: cell-based, Escherichia coli
[3] = tested on: K. pneumoniae ATCC 700603 (SHV18); test: as above; assay type: cell-based, Klebsiella pneumoniae
From the text: as §1
as §2, with “Compound-1. Results:” for “Compound-1.”
as §3

E. coli Ecoli233 (KPC3) = test: as above; assay type: cell-based, Escherichia coli
From the text: as §1, §2, §3

E. coli BAA-197 (TEM-12) = test: MIC of Piperacillin with inhibitor, ESBL isolates; assay type: cell-based, Escherichia coli
E. coli BAA-198 (TEM-26) = test: MIC of Piperacillin with inhibitor, ESBL isolates; assay type: cell-based, Escherichia coli
E. coli BAA-200 (SHV-4) = test: MIC of Piperacillin with inhibitor, ESBL isolates; assay type: cell-based, Escherichia coli
[4] = Ceftazidime 30 μg + Compound-1 60 μg on same disk
[5] = Imipenem 10 μg + Compound-1 60 μg on same disk

Row | Compound | ZOI of CAZ + Compound-1 [1, 4] [mm] | ZOI of IPM + Compound-1 [1, 5] [mm] | ZOI of CAZ + Compound-1 ([2]; Ceftazidime 30 μg + Compound-1 60 μg on same disk, ATCC 25922) [mm] | ZOI of IPM + Compound-1 ([2]; Imipenem 10 μg + Compound-1 60 μg on same disk, ATCC 25922) [mm] | Zone of inhibition of compound-1 alone ([2]; β-lactamase negative strain, FIG. 1 (D)) | ZOI of CAZ + Compound-1 [3, 4] [mm] | ZOI of IPM + Compound-1 [3, 5] [mm] | ZOI of CAZ + Compound-1 (E. coli Ecoli233 (KPC3); [4]) [mm] | ZOI of IPM + Compound-1 (E. coli Ecoli233 (KPC3); [5]) [mm] | MIC of Piperacillin with inhibitor (E. coli BAA-197 (TEM-12); inhibitor at 1 μg/mL) [µg/mL] | MIC of Piperacillin with inhibitor (E. coli BAA-197 (TEM-12); inhibitor at 2 μg/mL) [µg/mL] | MIC of Piperacillin with inhibitor (E. coli BAA-197 (TEM-12); inhibitor at 4 μg/mL) [µg/mL] | MIC of Piperacillin with inhibitor (E. coli BAA-198 (TEM-26); inhibitor at 1 μg/mL) [µg/mL] | MIC of Piperacillin with inhibitor (E. coli BAA-198 (TEM-26); inhibitor at 2 μg/mL) [µg/mL] | MIC of Piperacillin with inhibitor (E. coli BAA-198 (TEM-26); inhibitor at 4 μg/mL) [µg/mL] | MIC of Piperacillin with inhibitor (E. coli BAA-200 (SHV-4); inhibitor at 1 μg/mL) [µg/mL] | MIC of Piperacillin with inhibitor (E. coli BAA-200 (SHV-4); inhibitor at 2 μg/mL) [µg/mL] | MIC of Piperacillin with inhibitor (E. coli BAA-200 (SHV-4); inhibitor at 4 μg/mL) [µg/mL]
1 | C[n+]1ccn(C[C@@]2(C)[C@H](C(=O)[O-])N3C(=O)C[C@H]3S2(=O)=O)n1 [Compound-1, 1-{[(2S,3S,5R)-2-Carboxy-3-methyl-4,4,7-trioxo-4-thia-1-azabicyclo[3.2.0]hept-3-yl]methyl}-3-methyl-1H-1,2,3-triazol-3-ium] | 18.5 | 20 | 25 | 26.5 | does not show any zone of inhibition | 23 | 25 | 22.5 | 20 |  |  |  |  |  |  |  |  | 
2 | C[C@]1(Cn2ccnn2)[C@H](C(=O)O)N2C(=O)C[C@H]2S1(=O)=O [Tazobactam] |  |  |  |  |  |  |  |  |  | 64 | 8 | 4 | 4 | 4 | 4 | >128 | >128 | 4
